Test system: murine B16 melanoma cells
Assay: Anti-tumor effect: tumor size / tumor volume in mice bearing subcutaneous B16 melanoma
Format: in vivo, C57BL/6 mice
Set-up: key to Tumor measurement L (length) / Tumor measurement W (width): The sign “—” indicates that tumor does not reach a measurable size
Conditions: for Tumor Volume (cm^3) (Mean ± SD): group mean; for PI (TV), percent inhibition of tumor volume: vs vehicle; for Tumor volumes on Day 15: Length × Width × Width/2
Procedure: The toxic effects of the dosing regimens were also monitored. […] Meanwhile 9H10 was given in two groups via i.p. on Day 3, 6 and 9. […] Tumor volume and body weight were measured every three days, and tumor weights were measured on Day 16 at the end of the study.
As per aseptic tissue culture procedures, one vial of B16 melanoma cells was removed from the liquid nitrogen stock, and placed into a 37° C. water bath. Gentle swirling was conducted until the content of the vial was thawed. Using tissue culture/sterile procedures, the cells were immediately centrifuged with a TD5A-WS centrifuge at 1000 rpm, 20-25° C., 5 min. After centrifugation, the cells were suspended in 0.1 to 0.5 mL normal saline (NS) and subcutaneously injected into 10 mice (0.1 mL/mouse, about 1×10^6 cells). After 7-10 days, when the tumor diameter was approximately 1 cm, the animals were euthanized with CO2 overdose and the tumors excised. The procedure was repeated with 20 mice to generate a sufficient number of B16 melanoma cells with adequate transplantability.
On the day of tumor implantation, approximately 1×10^6 cells in 0.1 mL were subcutaneously injected on the right axillary area of each mouse. The day of tumor implantation was defined as Day 0.
On Day 3, the animals were randomly assigned into nine different weight-matched and tumor-size-matched groups. Dosing was started on Day 3 using the regimen according to Table 2.
From Day 1 to Day 15, mortality and moribundity were checked twice daily, the body weights were recorded once every 3 days, and tumors were measured using a caliper once every 3 days. At the end of the study (Day 16), the animals were euthanized by CO2 asphyxiation, and the tumors were excised and weighed.
Based on the tumor size, the tumor volume (TV) was calculated with the formula: [TV=(Length×Width×Width)/2]. And the percent inhibition (PI) of TV (PITV) was calculated according to the equation below:
PITV(%)=(TV vehicle−TVdrug treated)/TV vehicle×100
Inter-group comparison was performed in terms of tumor volume, tumor weight and body weight, using a student's t test. P values of less than 0.05 were considered to be statistically significant.

CN(C)/N=N/c1[nH]cnc1C(N)=O [DTIC, Dacarbazine]
0.195 ± 0.1932 cm^3: Tumor Volume (cm^3) (Mean ± SD) (Day 12)
43.22%: PI (TV), percent inhibition of tumor volume (Day 12)
0.60 cm: Tumor measurements on Day 15, L (Day 15, animal F3) | Tumor measurements on Day 15, W (Day 15, animal F3) | Tumor measurements on Day 15, L (Day 15, animal F5) | Tumor measurements on Day 15, W (Day 15, animal F5)
0.0135 cm^3: Tumor volume (Day 9, animal M1) | Tumor volume (Day 9, animal M2) | Tumor volume (Day 9, animal M3) | Tumor volume (Day 9, animal M4) | Tumor volume (Day 12, animal F2) | Tumor volume (Day 12, animal F3) | Tumor volume (Day 12, animal M5)
0.8640 cm^3: Tumor volumes on Day 15 (Day 15, animal M2) | Tumor volumes on Day 15 (Day 15, animal M4)
1.00 cm: Tumor measurements on Day 12, L (Day 12, animal M3) | Tumor measurements on Day 12, W (Day 12, animal M3) | Tumor measurements on Day 12, L (Day 12, animal M4) | Tumor measurements on Day 12, W (Day 12, animal M4) | Tumor measurements on Day 15, L (Day 15, animal M1) | Tumor measurements on Day 15, W (Day 15, animal M1) | Tumor measurements on Day 15, L (Day 15, animal M3) | Tumor measurements on Day 15, W (Day 15, animal M3)
0.0005 cm^3: Tumor volume (Day 3, animal M2) | Tumor volume (Day 3, animal M5) | Tumor volume (Day 6, animal F3) | Tumor volume (Day 9, animal F3) | Tumor volume (Day 9, animal F4) | Tumor volume (Day 9, animal F5) | Tumor volume (Day 9, animal M5)
0.1080 cm^3: Tumor volumes on Day 15 (Day 15, animal F3) | Tumor volumes on Day 15 (Day 15, animal F5)
0.0000 cm^3: Tumor volume (Day 3, animal F1) | Tumor volume (Day 3, animal F2) | Tumor volume (Day 3, animal F4) | Tumor volume (Day 3, animal F5) | Tumor volume (Day 3, animal M1) | Tumor volume (Day 3, animal M3) | Tumor volume (Day 3, animal M4) | Tumor volume (Day 6, animal F1) | Tumor volume (Day 6, animal F2) | Tumor volume (Day 6, animal F4) | Tumor volume (Day 6, animal F5) | Tumor volume (Day 6, animal M1) | Tumor volume (Day 6, animal M2) | Tumor volume (Day 6, animal M3) | Tumor volume (Day 6, animal M4) | Tumor volume (Day 6, animal M5) | Tumor volume (Day 9, animal F2)
0.30 cm: Tumor measurement L (length) (Day 9, animal M1) | Tumor measurement W (width) (Day 9, animal M1) | Tumor measurement L (length) (Day 9, animal M2) | Tumor measurement W (width) (Day 9, animal M2) | Tumor measurement L (length) (Day 9, animal M3) | Tumor measurement W (width) (Day 9, animal M3) | Tumor measurement L (length) (Day 9, animal M4) | Tumor measurement W (width) (Day 9, animal M4) | Tumor measurements on Day 12, L (Day 12, animal F2) | Tumor measurements on Day 12, W (Day 12, animal F2) | Tumor measurements on Day 12, L (Day 12, animal F3) | Tumor measurements on Day 12, W (Day 12, animal F3) | Tumor measurements on Day 12, W (Day 12, animal F5) | Tumor measurements on Day 12, L (Day 12, animal M5) | Tumor measurements on Day 12, W (Day 12, animal M5)
—: Tumor measurement L (length) (Day 3, animal F1) | Tumor measurement W (width) (Day 3, animal F1) | Tumor measurement L (length) (Day 3, animal F2) | Tumor measurement W (width) (Day 3, animal F2) | Tumor measurement L (length) (Day 3, animal F4) | Tumor measurement W (width) (Day 3, animal F4) | Tumor measurement L (length) (Day 3, animal F5) | Tumor measurement W (width) (Day 3, animal F5) | Tumor measurement L (length) (Day 3, animal M1) | Tumor measurement W (width) (Day 3, animal M1) | Tumor measurement L (length) (Day 3, animal M3) | Tumor measurement W (width) (Day 3, animal M3) | Tumor measurement L (length) (Day 3, animal M4) | Tumor measurement W (width) (Day 3, animal M4) | Tumor measurement L (length) (Day 6, animal F1) | Tumor measurement W (width) (Day 6, animal F1) | Tumor measurement L (length) (Day 6, animal F2) | Tumor measurement W (width) (Day 6, animal F2) | Tumor measurement L (length) (Day 6, animal F4) | Tumor measurement W (width) (Day 6, animal F4) | Tumor measurement L (length) (Day 6, animal F5) | Tumor measurement W (width) (Day 6, animal F5) | Tumor measurement L (length) (Day 6, animal M1) | Tumor measurement W (width) (Day 6, animal M1) | Tumor measurement L (length) (Day 6, animal M2) | Tumor measurement W (width) (Day 6, animal M2) | Tumor measurement L (length) (Day 6, animal M3) | Tumor measurement W (width) (Day 6, animal M3) | Tumor measurement L (length) (Day 6, animal M4) | Tumor measurement W (width) (Day 6, animal M4) | Tumor measurement L (length) (Day 6, animal M5) | Tumor measurement W (width) (Day 6, animal M5)
0.50 cm: Tumor measurements on Day 12, L (Day 12, animal F1) | Tumor measurements on Day 12, W (Day 12, animal F1) | Tumor measurements on Day 15, L (Day 15, animal F2) | Tumor measurements on Day 15, W (Day 15, animal F2)
0.1350 cm^3: Tumor volume (Day 12, animal F5)
0.000 ± 0.0002 cm^3: Tumor Volume (cm^3) (Mean ± SD) (Day 6)
0.3645 cm^3: Tumor volume (Day 12, animal M2) | Tumor volumes on Day 15 (Day 15, animal M5)
1.20 cm: Tumor measurements on Day 15, L (Day 15, animal M2) | Tumor measurements on Day 15, W (Day 15, animal M2) | Tumor measurements on Day 15, L (Day 15, animal M4) | Tumor measurements on Day 15, W (Day 15, animal M4)
0.80 cm: Tumor measurements on Day 15, L (Day 15, animal F1) | Tumor measurements on Day 15, W (Day 15, animal F1)
0.0040 cm^3: Tumor volume (Day 3, animal F3) | Tumor volume (Day 9, animal F1)
90.91%: PI (TV), percent inhibition of tumor volume (Day 6)
−400.00%: PI (TV), percent inhibition of tumor volume (Day 3)
71.15%: PI (TV), percent inhibition of tumor volume (Day 9)
0.001 ± 0.0012 cm^3: Tumor Volume (cm^3) (Mean ± SD) (Day 3)
0.2560 cm^3: Tumor volumes on Day 15 (Day 15, animal F1)
0.90 cm: Tumor measurements on Day 12, L (Day 12, animal M2) | Tumor measurements on Day 12, W (Day 12, animal M2) | Tumor measurements on Day 15, L (Day 15, animal M5) | Tumor measurements on Day 15, W (Day 15, animal M5)
0.1715 cm^3: Tumor volume (Day 12, animal F4) | Tumor volume (Day 12, animal M1) | Tumor volumes on Day 15 (Day 15, animal F4)
0.380 ± 0.2991 cm^3: Tumor Volume (cm^3) (Mean ± SD) (Day 15)
0.10 cm: Tumor measurement L (length) (Day 3, animal M2) | Tumor measurement W (width) (Day 3, animal M2) | Tumor measurement L (length) (Day 3, animal M5) | Tumor measurement W (width) (Day 3, animal M5) | Tumor measurement L (length) (Day 6, animal F3) | Tumor measurement W (width) (Day 6, animal F3) | Tumor measurement L (length) (Day 9, animal F3) | Tumor measurement W (width) (Day 9, animal F3) | Tumor measurement L (length) (Day 9, animal F4) | Tumor measurement W (width) (Day 9, animal F4) | Tumor measurement L (length) (Day 9, animal F5) | Tumor measurement W (width) (Day 9, animal F5) | Tumor measurement L (length) (Day 9, animal M5) | Tumor measurement W (width) (Day 9, animal M5)
0.3 cm: Tumor measurements on Day 12, L (Day 12, animal F5)
0.5000 cm^3: Tumor volume (Day 12, animal M3) | Tumor volume (Day 12, animal M4) | Tumor volumes on Day 15 (Day 15, animal M1) | Tumor volumes on Day 15 (Day 15, animal M3)
0.70 cm: Tumor measurements on Day 12, L (Day 12, animal F4) | Tumor measurements on Day 12, W (Day 12, animal F4) | Tumor measurements on Day 12, L (Day 12, animal M1) | Tumor measurements on Day 12, W (Day 12, animal M1) | Tumor measurements on Day 15, L (Day 15, animal F4) | Tumor measurements on Day 15, W (Day 15, animal F4)
0.006 ± 0.0065 cm^3: Tumor Volume (cm^3) (Mean ± SD) (Day 9)
48.12%: PI (TV), percent inhibition of tumor volume (Day 15)
0.0625 cm^3: Tumor volume (Day 12, animal F1) | Tumor volumes on Day 15 (Day 15, animal F2)
0.20 cm: Tumor measurement L (length) (Day 3, animal F3) | Tumor measurement W (width) (Day 3, animal F3) | Tumor measurement L (length) (Day 9, animal F1) | Tumor measurement W (width) (Day 9, animal F1)

From US20100267637A1, “TREATMENT OF MELANOMA WITH ALPHA THYMOSIN PEPTIDES IN COMBINATION WITH A KINASE INHIBITOR” (SciClone Pharmaceuticals, Inc., priority 2007, published 2010)
